Laboratory results reported in US20050070508A1, “Napthalene carboxamides and their derivatives useful as new anti-angiogenic agents” (AGOURON PHARMACEUTICALS, INC., priority 2003, published 2005).

Key:
[1] = target: T1, human vascular endothelial growth factor receptor 2 (VEGF-R2) (Homo sapiens, UniProt P35968, DEL940-989/E990V); test: VEGF-R2 coupled spectrophotometric assay (FLVK); format: biochemical; details: unphosphorylated VEGF-R2D50 (FLVK)
T1 construct: VEGF-R2D50 contains residues 806-939 and 990-1171; made in house; host or cells: baculovirus/insect cell system
T1 sequence (P35968 with tags, fused parts or gaps DEL940-989/E990V limits assumed): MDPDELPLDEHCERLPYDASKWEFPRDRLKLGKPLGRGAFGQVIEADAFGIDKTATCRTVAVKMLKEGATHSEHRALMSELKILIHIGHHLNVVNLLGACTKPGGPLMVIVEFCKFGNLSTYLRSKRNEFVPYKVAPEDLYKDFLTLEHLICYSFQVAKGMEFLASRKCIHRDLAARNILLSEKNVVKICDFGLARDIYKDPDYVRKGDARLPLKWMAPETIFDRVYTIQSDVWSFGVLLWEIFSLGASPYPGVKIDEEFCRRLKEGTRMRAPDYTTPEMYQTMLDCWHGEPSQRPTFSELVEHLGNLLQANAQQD
Description: This construct determines the ability of a test compound to inhibit tyrosine kinase activity. A construct (VEGF-R2D50) of the cytosolic domain of human vascular endothelial growth factor receptor 2 (VEGF-R2) lacking the 50 central residues of the 68 residues of the kinase insert domain was expressed in a baculovirus/insect cell system. Of the 1356 residues of full-length VEGF-R2, VEGF-R2D50 contains residues 806-939 and 990-1171, and also one point mutation (E990V) within the kinase insert domain relative to wild-type VEGF-R2. Autophosphorylation of the purified construct was performed by incubation of the enzyme at a concentration of […] in the presence of 3 mM ATP and 40 mM MgCl2 in 100 mM HEPES, pH 7.5, containing 5% glycerol and 5 mM DTT, at 4° C. for 2 h. […] See Parast et al., Biochemistry, 37, 16788-16801 (1998).
The production of ADP from ATP that accompanies phosphoryl transfer was coupled to oxidation of NADH using phosphoenolpyruvate (PEP) and a system having pyruvate kinase (PK) and lactic dehydrogenase (LDH). The oxidation of NADH was monitored by following the decrease of absorbance at 340 nm (e340=6.22 cm^−1 mM^−1) using a Beckman DU 650 spectrophotometer. Assay conditions for phosphorylated VEGF-R2D50 (indicated as FLVK-P in the tables below) were the following: 1 mM PEP; […]; 50 units of LDH/mL; 20 units of PK/mL; 5 mM DTT; 5.1 mM poly(E4Y1); 1 mM ATP; and 25 mM MgCl2 in 200 mM HEPES, pH 7.5. Assay conditions for unphosphorylated VEGF-R2D50 (indicated as FLVK in the tables) were the following: 1 mM PEP; […]; 50 units of LDH/mL; 20 units of PK/mL; 5 mM DTT; 20 mM poly(E4Y1); 3 mM ATP; and 60 mM MgCl2 and 2 mM MnCl2 in 200 mM HEPES, pH 7.5. Assays were initiated with 5 to 40 nM of enzyme. Ki values were determined by measuring enzyme activity in the presence of varying concentrations of test compounds. The percent inhibition at 50 nm (% inhibition @ 50 nm) was determined by linear least-squares regression analysis of absorbance as a function of time. The binding inhibitions were fitted to equation as described by Morrison. The data were analyzed using Enzyme Kinetic and Kaleidagraph software.

[2] = test system: human umbilical vein endothelial cells (HUVEC); test: HUVEC+VEGF Proliferation Assay; format: cell-based; details: VEGF-stimulated proliferation, final VEGF 6 ng/mL, 72 hours, MTT dye reduction
Description: This assay determines the ability of a test compound to inhibit the growth factor-stimulated proliferation of human umbilical vein endothelial cells (“HUVEC”). HUVEC cells (passage 3-4, Clonetics, Corp.) were thawed into EGM2 culture medium (Clonetics Corp) in T75 flasks. Fresh EGM2 medium was added to the flasks 24 hours later. Four or five days later, cells were exposed to another culture medium (F12K medium supplemented with 10% fetal bovine serum (FBS), […] endothelial cell growth supplement (ECGS), and 0.1 mg/mL heparin). Exponentially-growing HUVEC cells were used in experiments thereafter. Ten to twelve thousand HUVEC cells were plated in 96-well dishes in […] of rich, culture medium (described above). The cells were allowed to attach for 24 hours in this medium. The medium was then removed by aspiration and […] of starvation media (F12K+1% FBS) was added to each well. After 24 hours, […] of test agent dissolved in 1% DMSO in starvation medium or this vehicle alone was added into each treatment well; the final DMSO concentration was 0.1%. One hour later, […] of VEGF (30 ng/mL) in starvation media was added to all wells except those containing untreated controls; the final VEGF concentration was 6 ng/mL. Cellular proliferation was quantified 72 hours later by MTT dye reduction, at which time cells were exposed for 4 hours MTT (Promega Corp.). Dye reduction was stopped by addition of a stop solution (Promega Corp.) and absorbance at 595 nm was determined on a 96-well spectrophotometer plate reader.

Row | Structure (SMILES) | Ki [1] [nM] | IC50 [2] [nM]
1 | Cn1ccnc1-c1cc2nccc(Oc3ccc4c(C(=O)NCCCN5CCOCC5)cccc4c3)c2s1 [Example 30, 6-[2-(1-Methyl-1H-imidazol-2-yl)-thieno[3,2-b]pyridin-7-yloxy]-naphthalene-1-carboxylic acid (3-morpholin-4-yl-propyl)-amide] | < 1 | < 1
2 | CNC(=O)c1cccc2c(F)c(Oc3ccnc4cc(C(=O)N5CC[C@H](OC)C5)sc34)ccc12 [Example 1, 5-Fluoro-6-[(2-{[(3S)-3-methoxypyrrolidin-1-yl]carbonyl}thieno[3,2-b]pyridin-7-yl)oxy]-N-methyl-1-naphthamide] | < 1 | < 1
3 | COc1ccc2c(Oc3ccc4c(C(=O)NC(C)C)cccc4c3)ccnc2c1 [Example 50, 6-(7-Methoxy-quinolin-4-yloxy)-naphthalene-1-carboxylic Acid Isopropylamide] | 1 to 10 | > 10
4 | O=C(NCCCN1CCOCC1)c1cccc2cc(Oc3ccnc4ccsc34)ccc12 [Example 39, 6-(Thieno[3,2-b]pyridin-7-yloxy)-naphthalene-1-carboxylic acid (3-morpholin-4-yl-propyl)-amide] | 1 to 10 | 1 to 10
5 | O=C(NCCCN1CCOCC1)c1cccc2cc(Oc3ncnc4ccsc34)ccc12 [Example 42, 6-(Thieno [3,2-d]pyrimidin-4-yloxy)-naphthalene-1-carboxylic acid (3-morpholin-4-yl-propyl)-amide] | 1 to 10 | > 10
6 | CNC(=O)c1cccc2cc(Oc3ccnc4cc(C(=O)N(C)CCO)sc34)ccc12 [Example 8, N-(2-Hydroxyethyl)-N-methyl-7-({5-[(methylamino)carbonyl]-2-naphthyl}oxy)thieno[3,2-b]pyridine-2-carboxamide] | 1 to 10 | > 10
7 | CNC(=O)c1cccc2cc(Oc3ccnc4cc(OC)ccc34)ccc12 [Example 43, 6-(7-Methoxy-quinolin-4-yloxy)-naphthalene-1-carboxylic Acid Methylamide] | 1 to 10 | 1 to 10
8 | CNC(=O)c1cccc2cc(Oc3ccnc4cc(C(=O)N5CC[C@@H](N(C)C)C5)sc34)ccc12 [Example 5, 6-[(2-{[(3R)-3-(dimethylamino)pyrrolidin-1-yl]carbonyl}thieno[3,2-b]pyridin-7-yl)oxy]-N-methyl-1-naphthamide] | 1 to 10 | 1 to 10
9 | CNC(=O)c1cccc2cc(Oc3ccnc4cc(C(=O)N5CC[C@H](OC)C5)sc34)ccc12 [Example 3, 6-[(2-{[(3S)-3-methoxypyrrolidin-1-yl]carbonyl}thieno[3,2-b]pyridin-7-yl)oxy]-N-methyl-1-naphthamide] | < 1 | < 1
